Test results from ChEMBL document CHEMBL4396870, “Pharmacological Chaperones for the Treatment of α-Mannosidosis” (J Med Chem, 2019).
Residue numbers refer to the chain shown, from its start. The source made the active and inactive calls. No cut-off for these calls is given here.

Assays:
[1] = test system: T1, Lysosomal alpha-mannosidase (Homo sapiens), O00754 [H72L]; assay: Chaperone activity at human Lysosomal alpha-mannosidase H72L mutant transfected in human […] knockout HAP1 cells assessed as enzyme activity enhancement at 2 uM incubated for 96 hrs relative to control
T1 sequence (whole entry): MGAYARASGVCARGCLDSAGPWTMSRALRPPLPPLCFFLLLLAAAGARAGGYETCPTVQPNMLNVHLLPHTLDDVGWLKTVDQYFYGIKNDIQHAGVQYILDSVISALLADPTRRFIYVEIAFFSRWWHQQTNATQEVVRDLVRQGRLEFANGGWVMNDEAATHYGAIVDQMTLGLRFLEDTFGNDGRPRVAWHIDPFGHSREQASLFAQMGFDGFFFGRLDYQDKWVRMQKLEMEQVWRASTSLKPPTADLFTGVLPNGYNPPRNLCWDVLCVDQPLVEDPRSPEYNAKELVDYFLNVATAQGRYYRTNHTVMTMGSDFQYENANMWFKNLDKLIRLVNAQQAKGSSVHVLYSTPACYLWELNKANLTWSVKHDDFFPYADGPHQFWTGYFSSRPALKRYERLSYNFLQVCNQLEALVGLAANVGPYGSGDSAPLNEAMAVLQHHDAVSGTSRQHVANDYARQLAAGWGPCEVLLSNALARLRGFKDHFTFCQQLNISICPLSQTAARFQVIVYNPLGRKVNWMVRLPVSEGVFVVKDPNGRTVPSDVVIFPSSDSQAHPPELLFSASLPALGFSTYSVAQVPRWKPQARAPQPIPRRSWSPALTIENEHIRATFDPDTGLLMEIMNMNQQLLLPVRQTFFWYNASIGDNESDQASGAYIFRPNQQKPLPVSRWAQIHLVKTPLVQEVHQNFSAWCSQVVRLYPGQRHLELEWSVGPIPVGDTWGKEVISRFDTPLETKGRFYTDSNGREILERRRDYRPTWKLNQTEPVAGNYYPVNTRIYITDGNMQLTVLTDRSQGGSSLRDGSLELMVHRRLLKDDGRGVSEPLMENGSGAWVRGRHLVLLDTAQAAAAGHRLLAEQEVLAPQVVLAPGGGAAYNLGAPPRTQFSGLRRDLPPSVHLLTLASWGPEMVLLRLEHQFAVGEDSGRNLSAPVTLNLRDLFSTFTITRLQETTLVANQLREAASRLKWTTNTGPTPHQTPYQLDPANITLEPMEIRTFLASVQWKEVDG

[2] = biological target: T2, Lysosomal alpha-mannosidase (Homo sapiens) (UniProt O00754); assay: Chaperone activity at Lysosomal alpha-mannosidase in wild-type human fibroblasts assessed as effect on Lysosomal alpha-mannosidase activity at 0.002 to 0.02 uM using 4-methylumbelliferone alpha-D-mannopyranoside as a reporter substrate incubated for 4 days by fluorescence method relative to control
T2 sequence (whole entry): T1 sequence (whole entry) with L72H

| SMILES | Activity [1] | Activity [2] |
| --- | --- | --- |
| COC[C@H]1O[C@@H]2O[C@H]3[C@H](OC)[C@@H](OC)[C@@H](O[C@H]4[C@H](OC)[C@@H](OC)[C@@H](O[C@H]5[C@H](OC)[C@@H](OC)[C@@H](O[C@H]6[C@H](OC)[C@@H](OC)[C@@H](O[C@H]7[C@H](OC)[C@@H](OC)[C@@H](O[C@H]8[C@H](OC)[C@@H](OC)[C@@H](O[C@H]1[C@H](OC)[C@H]2OC)O[C@@H]8COC)O[C@@H]7COC)O[C@@H]6COC)O[C@@H]5COCc1cn(CCCCCCN[C@@H]2[C@@H](O)[C@@H](O)[C@H](O)[C@H]5COC(=O)N52)nn1)O[C@@H]4COC)O[C@@H]3COC | 23% | inactive |
| CC(C)(C)OC(=O)NCCCCCCCCCN[C@@H]1[C@@H](O)[C@@H](O)[C@H](O)[C@H]2COC(=O)N21 | 34% |  |
| CCCc1cn(CCCCCCN[C@@H]2[C@@H](O)[C@@H](O)[C@H](O)[C@H]3COC(=O)N32)nn1 |  | inactive |
